# Assay results reported in patent publication US20140336130A1 (PHIGENIX, INC., priority 2011, published 2014).
# Entries after “also recorded” stand apart in the source; their conditions may differ.
# Columns and labels:
# Format in all cases: cell-based, human
# DU145 = assay: Thymidine incorporation, DU145
# Method: Proliferation of cells was determined by [3H] thymidine ribotide ([3H] TdR) incorporation into DNA. 0.5×10^6 cells/well of suspension DU145 cells were plated in their appropriate media. Cells were incubated for 72 h with or without the presence of AngII at the indicated concentrations. Cells were exposed to 37 kBq/ml [methyl-3H] thymidine in the same medium for 6 h. The adherent cells were fixed by 5% trichloroacetic acid and lysed in SDS/NaOH lysis buffer overnight. Radioactivity was measured by Beckman LS3801 liquid scintillation counter (Canada). Suspension cell cultures were harvested by cell harvester (Packard instrument Co., Meriden, Conn.), and radioactivity was measured by 1450 microbeta liquid scintillation counter (PerkinElmer Life Sciences).
# DEFB1 = assay: QRT-PCR of DEFB1 (hBD-1) expression; settings: for decrease in DEFB1 expression relative to untreated hPrEC cells: 10 μM AngII
# Method: Briefly, total RNA was isolated using the SV Total RNA Isolation System (Promega, Madison, Wis.) from approximately 1×10^6 cells harvested by trypsinizing. Cells were lysed and total RNA was isolated by centrifugation through spin columns. For cells collected by LCM, total RNA was isolated using the PicoPure RNA Isolation Kit (Arcturus Biosciences, Mt. View, Calif.) following the manufacturer's protocol. Total RNA (0.5 μg per reaction) from both sources was reverse transcribed into cDNA utilizing random primers (Promega). AMV Reverse Transcriptase II enzyme (500 units per reaction; Promega) was used for first strand synthesis and Tfl DNA Polymerase for second strand synthesis (500 units per reaction; Promega) as per the manufacturer's protocol. In each case, 50 pg of cDNA was used per ensuing PCR reaction. Two-step QRT-PCR was performed on cDNA generated using the MultiScribe Reverse Transcripatase from the TaqMan Reverse Transcription System and the SYBR® Green PCR Master Mix (Applied Biosystems).
# Forty cycles of PCR were performed under standard conditions using an annealing temperature of 56° C. In addition, β-actin (Table 2) was amplified as a housekeeping gene to normalize the initial content of total cDNA. […]
# Quantitative real-time RT-PCR was performed as described in Example 1 to verify changes in gene expression following PAX2 knockdown in PC3 and DU145 prostate cancer cell lines and the hPrEC normal prostate epithelial cells. […] Quantification was determined by the cycle number where exponential amplification began (threshold value) and averaged from the values obtained from the triplicate repeats. […] Relative expression was calculated as the ratio between each genes and GAPDH. […]
# QRT-PCR was performed as previously described (Gibson et al., 2007). […] Gene expression in benign prostate tissue samples was calculated as the expression ratio compared to β-actin. Levels of hBD-1 expression in malignant prostate tissue, hPREC prostate primary culture, and prostate cancer cell lines before and after induction were calculated relative to the average level of hBD-1 expression in hPrEC cells. […]
# PAX2 expression = PAX2 expression after AngII or pathway blockers; settings: for increase in PAX2 expression relative to untreated hPrEC cells: 10 μM AngII; for PAX2 expression, fold increase: PD123319 5 μM; for PAX2 expression reduced by, compared to untreated control: Los 5 μM
# phospho-PAX2 = assay: Western blot of phospho-PAX2; settings: DU145
# Method: (§1) Western blot analysis was performed as described in Example 2. […] After washing, the membranes were incubated with anti-rabbit antibody conjugated to horseradish peroxidase (HRP) (dilution 1:5000; Sigma), and signal detection was visualized using chemilluminescence reagents (Pierce) on an Alpha Innotech Fluorchem 8900. As a control, blots were stripped and re-probed with mouse anti-β-actin primary antibody (1:5000; Sigma-Aldrich) and HRP— conjugated anti-mouse secondary antibody (1:5000; Sigma-Aldrich), and signal detection was again visualized.\
# PAX2 protein = assay: Western blot analysis of PAX2 protein; settings: DU145, Los 5 μM, U0126 25 μM, PD98059 20 μM, AICAR 250 μM, vs untreated control
# Method: Briefly, cells were harvested by trypsinization and washed twice with PBS. Lysis buffer was prepared according to the manufacturer's instructions (Sigma), and was then added to the cells. Following a 15 minute incubation period at 4° C. on an orbital shaker, cell lysate were then collected and centrifuged for 10 minutes at 12000×g to pellet cellular debris. The protein-containing supernatant were then collected and quantitated. Next, 25 μg protein extract was loaded onto an 8-16% gradient SDS-PAGE (Novex). Following electrophoresis, proteins were transferred to PVDF membranes, and then blocked with 5% nonfat dry milk in TTBS (0.05% Tween 20 and 100 mM Tris-Cl) for 1 hour. Blots were then probed with rabbit anti-PAX2 primary antibody (Zymed, San Francisco, Calif.) at a 1:2000 dilution. After washing, the membranes were incubated with anti-rabbit antibody conjugated to horseradish peroxidase (HRP) (dilution 1:5000; Sigma), and signal detection was visualized using chemilluminescence reagents (Pierce) on an Alpha Innotech Fluorchem 8900. As a control, blots were stripped and reprobed with mouse anti-β-actin primary antibody (1:5000; Sigma-Aldrich) and HRP— conjugated anti-mouse secondary antibody (1:5000; Sigma-Aldrich) and signal detection was again visualized.
# (§2) Western blot analysis was performed as described in Example 2. Blots were then probed with primary antibody (anti-PAX2, -phospho-PAX2, -JNK, -phospho-JNK, -ERK1/2, or -phospho-ERK1/2) (Zymed, San Francisco, Calif.) at 1:1000-2000 dilutions. After washing, the membranes were incubated with anti-rabbit antibody conjugated to horseradish peroxidase (HRP) (dilution 1:5000; Sigma), and signal detection was visualized using chemilluminescence reagents (Pierce) on an Alpha Innotech Fluorchem 8900. As a control, blots were stripped and re-probed with mouse anti-β-actin primary antibody (1:5000; Sigma-Aldrich) and HRP— conjugated anti-mouse secondary antibody (1:5000; Sigma-Aldrich), and signal detection was again visualized.\
# Western blot analysis was performed as described in Example 2.
# phospho-STAT3 = assay: Western blot of phospho-STAT3; settings: DU145; vs untreated control
# Method: as §1
# phospho-JNK = assay: Western blot of phospho-JNK; settings: DU145
# Method: as §1
# ERK = assay: Western blot of ERK protein; settings: DU145; Los
# Method: as §2
# phospho-ERK 1/2 = assay: Western blot of phospho-ERK1/2; settings: DU145, Los
# Method: as §2
# [1] = DU145, U0126 25 μM, PD98059 20 μM
compound,measurement,setting,value
"Angiotensin II (DRVYIHPF; Angiotensin-2; UniProt P01019 25-32, looked up) [AngII]",proliferation rate,"DU145; AngII, 72 h",two- to three-fold increase; also recorded: increases DU145 cell proliferation
same,decrease in DEFB1 expression relative to untreated hPrEC cells,DEFB1; 72 hours,35%
same,decrease in DEFB1 expression relative to untreated hPrEC cells,DEFB1; 96 hours,50%
same,DEFB1 expression levels,"DEFB1; hPrEC, AngII (FIG. 25 legend)",decreases DEFB1 expression levels
same,PAX2 expression,"PAX2 expression; DU145, AngII treatment over 30 min to 48 hour",progressively increased over time
same,increase in PAX2 expression relative to untreated hPrEC cells,"PAX2 expression; hPrEC, 72 hours",66%
same,increase in PAX2 expression relative to untreated hPrEC cells,"PAX2 expression; hPrEC, 96 hours",79%
same,PAX2 expression levels,"PAX2 expression; hPrEC, AngII (FIG. 25 legend)",increases PAX2 expression levels
same,PAX2 expression as % of PAX2 levels in PC3 cells,"PAX2 expression; hPrEC, AngII, 72 hours",77%
same,PAX2 expression as % of PAX2 expression in PC3 cells,"PAX2 expression; hPrEC, AngII, 96 hours",89%
"NC(=O)c1ncn([C@@H]2O[C@H](CO)[C@@H](O)[C@H]2O)c1N [AICAR, 5-Aminoimidazole-4-carboxamide-1-β-4-ribofuranoside]",phospho-PAX2 protein levels,phospho-PAX2,suppression; also recorded: suppress phospho-PAX2 protein expression levels
same,PAX2 protein levels,PAX2 protein,suppression of PAX2 expression; also recorded: suppress PAX2 protein levels
same,phospho-STAT3 protein levels,phospho-STAT3,suppressed; also recorded: suppress phospho-STAT3 protein levels
COc1cccc(-c2cc(=O)c3ccccc3o2)c1N [PD98059],phospho-PAX2 protein levels,phospho-PAX2,significant decrease or suppression; also recorded: suppress phospho-PAX2 protein expression levels
same,PAX2 protein levels,PAX2 protein,suppress PAX2 protein levels
same,phospho-STAT3 protein levels,phospho-STAT3,reduced phospho-STAT3 protein levels; also recorded: suppress phospho-STAT3 protein levels
same,PAX2 expression,PAX2 expression; [1],decreased PAX2
Cc1cc(Cn2cnc3c2C[C@@H](C(=O)O)N(C(=O)C(c2ccccc2)c2ccccc2)C3)ccc1N(C)C [PD123319],"PAX2 expression, fold increase","PAX2 expression; DU145, 48 hours",7 fold
same,"PAX2 expression, fold increase","PAX2 expression; DU145, 96 hours",8 fold
N#CC(=C(/N)Sc1ccccc1N)/C(C#N)=C(\N)Sc1ccccc1N [U0126],phospho-PAX2 protein levels,phospho-PAX2,significant decrease or suppression; also recorded: suppress phospho-PAX2 protein expression levels
same,PAX2 protein levels,PAX2 protein,suppress PAX2 protein levels
same,phospho-JNK protein levels,phospho-JNK,did not decrease; also recorded: failed to decrease phospho-JNK protein levels
same,phospho-STAT3 protein levels,phospho-STAT3,reduced phospho-STAT3 protein levels; also recorded: suppress phospho-STAT3 protein levels
same,PAX2 expression,PAX2 expression; [1],significant reduction of PAX2 expression
"CCCCc1nc(Cl)c(CO)n1Cc1ccc(-c2ccccc2-c2nn[nH]n2)cc1 [Los, Losartan]",phospho-PAX2 protein levels,phospho-PAX2,significant decrease or suppression; also recorded: suppress phospho-PAX2 protein expression levels
same,PAX2 protein levels,PAX2 protein,significant reduction of PAX2 expression
same,PAX2 protein levels,PAX2 protein; listed as Losartan,suppress PAX2 protein levels
same,proliferation rate decreased by,DU145; Los,50%
same,effect of AngII on proliferation,DU145; pre-treating with Los for 30 min,suppressed the effect of AngII on proliferation
same,phospho-JNK protein levels,phospho-JNK,did not decrease; also recorded: failed to decrease phospho-JNK protein levels
same,ERK protein levels,ERK,no effect
same,phospho-ERK protein level,phospho-ERK 1/2,reduced the amount of phospho-ERK
same,phospho-ERK protein level,phospho-ERK 1/2; listed as Losartan,suppresses phospho-ERK 1/2
same,phospho-STAT3 protein levels,phospho-STAT3,reduced phospho-STAT3 protein levels; also recorded: suppress phospho-STAT3 protein levels
same,"PAX2 expression reduced by, compared to untreated control","PAX2 expression; DU145, 48 hours",37%
same,"PAX2 expression reduced by, compared to untreated control","PAX2 expression; DU145, 72 hours",50%
same,effect of AngII on PAX2 expression,"PAX2 expression; DU145, Los (FIG. 21 legend)",blocks the effect of Angiotensin II
